Test results: patent publication US20240409647A1, “BISPECIFIC BINDING PROTEINS AGAINST ALARMINS AND USES THEREOF” (SINOMAB BIOSCIENCE LIMITED, priority 2022, published 2024)
“And” between values parts separate entries of the source, which are not always exact repeats. Equal entries are not always repeated.

Experiments:
hIL17RC = biological target: T1, hIL17RC (Homo sapiens, UniProt Q8NAC3); experiment: ELISA, SM17 specificity against IL-17 receptor subunits (IL17RC); assay type: binding; conditions: 0.4 to 0.00064 μg/mL
T1 construct: purchased R&D systems
T1 sequence (Q8NAC3 21-791): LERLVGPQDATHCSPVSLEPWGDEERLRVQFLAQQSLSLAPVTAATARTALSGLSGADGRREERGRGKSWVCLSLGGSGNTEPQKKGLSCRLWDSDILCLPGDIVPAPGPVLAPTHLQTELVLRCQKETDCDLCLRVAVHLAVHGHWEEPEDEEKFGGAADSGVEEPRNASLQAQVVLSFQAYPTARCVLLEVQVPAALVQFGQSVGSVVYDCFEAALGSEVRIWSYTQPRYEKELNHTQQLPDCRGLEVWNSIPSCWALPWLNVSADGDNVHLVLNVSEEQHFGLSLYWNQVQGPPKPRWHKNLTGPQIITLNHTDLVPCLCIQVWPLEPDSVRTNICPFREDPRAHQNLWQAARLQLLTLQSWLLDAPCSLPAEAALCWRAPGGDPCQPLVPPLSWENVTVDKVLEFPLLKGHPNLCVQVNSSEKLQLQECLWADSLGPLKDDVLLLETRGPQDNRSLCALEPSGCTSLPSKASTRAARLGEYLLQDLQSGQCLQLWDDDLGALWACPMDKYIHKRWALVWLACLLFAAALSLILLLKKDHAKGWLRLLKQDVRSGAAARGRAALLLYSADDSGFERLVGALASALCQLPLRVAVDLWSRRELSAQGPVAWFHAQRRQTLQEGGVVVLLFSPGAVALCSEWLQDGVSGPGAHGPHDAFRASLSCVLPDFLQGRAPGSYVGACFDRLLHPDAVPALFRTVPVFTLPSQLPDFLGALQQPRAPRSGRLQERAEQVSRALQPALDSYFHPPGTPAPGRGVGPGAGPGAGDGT
Protocol: A standard ELISA method was used to determine the specificity of SM17 against other human IL17 receptor subunits. Similarly, serially diluted SM17 at different concentrations (final concentrations at 0.4, 0.08, 0.016, 0.0032 and 0.00064 μg/m, respectively) was added to the wells of ELISA plates coated either with human IL-17 receptor subunits A, C, D and E (IL17RA, IL17RC, IL17RD, and IL17RE) (R&D systems).

Cyno-IL17RB = experiment: Bio-Layer Interferometry (Octet), SM17 binding kinetics to cynomolgus IL17RB; parameters: species or system cynomolgus monkey; conditions: trials 1 and 2
Protocol: (§1) Bio-Layer Interferometry analysis (Octet ReD96 system, Sartorius) was employed to determine the binding affinity of SM17 against human and cynomolgus monkey IL17RB protein (R&D systems). Briefly, SM17 (20 μg/mL) was immobilized on biosensors via interactions with anti-human Fab CH1; serially diluted Cyno-IL17RB and Human-IL17RB (at a concentration of 158.7 nM, 79.4 nM and 39.7 nM, respectively) were subsequently added following standard operation protocols of the Octet ReD96 system to plot out the association and dissociation curve. Irrelevant antibody (SM03, anti-human CD22 chimeric IgG1 antibody, SinoMab BioScience Limited) was used as the control reference. Of note, the KD is within picomolar-single digit nanomolar range.

IL-17RB = biological target: T2, IL-17RB (Homo sapiens, UniProt Q9NRM6); experiment: Bio-Layer Interferometry (Octet), SM17 binding kinetics to human IL17RB; conditions: trials 1 and 2
T2 construct: purchased R&D systems
T2 sequence (Q9NRM6 18-502): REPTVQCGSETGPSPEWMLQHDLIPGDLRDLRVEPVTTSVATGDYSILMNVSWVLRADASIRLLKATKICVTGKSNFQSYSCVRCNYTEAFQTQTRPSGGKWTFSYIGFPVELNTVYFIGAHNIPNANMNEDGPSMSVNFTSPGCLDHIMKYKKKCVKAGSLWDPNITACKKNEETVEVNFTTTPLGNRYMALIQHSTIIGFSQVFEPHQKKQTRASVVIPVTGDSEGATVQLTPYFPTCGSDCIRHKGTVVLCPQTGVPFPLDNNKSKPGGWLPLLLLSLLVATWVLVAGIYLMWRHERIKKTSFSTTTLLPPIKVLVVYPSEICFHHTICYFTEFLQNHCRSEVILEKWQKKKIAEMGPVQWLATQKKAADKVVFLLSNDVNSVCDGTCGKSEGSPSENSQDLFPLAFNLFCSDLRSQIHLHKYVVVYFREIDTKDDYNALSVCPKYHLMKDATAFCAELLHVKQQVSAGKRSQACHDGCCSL
Protocol: as §1

Human PBMCs [1] = experiment: IL-5 and IL-13 release from human PBMC incubated with IL-2 and three alarmins; assay type: cell-based; conditions: SM17 5 μg/ml; IL-2 and three alarmins (10 ng/ml), three days; vs IgG4 isotype control
Protocol: (§2) Human PBMCs (4×10^5 per group, Ixcells) were incubated with IL-2 (10 unit/mL, PeproTech) and various alarmin/alarmin combinations to mimic the pro-inflammatory cytokines release during allergic diseases. For IL-5 and IL-13 releases, PBMCs were incubated with IL-2 and three alarmins (all 10 ng/ml) for three days. For CCL17 release, PBMC was incubated with TSLP (10 ng/ml) for 1 day. For CCL8 and IFNγ releases, PBMCs were incubated with IL-12 (10 ng/ml, Sino Biological) and IL-33 (10 ng/ml) for 1 day. Cells were pretreated with SM17 (5 μg/ml) or IgG4 isotype control (5 μg/ml) for an hour before the addition of cytokines.
(§3) Supernatants were collected and the cytokine concentration were measured by ELISA kits (R&D systems). These established assays were used to test the potency of and SM17 and bsBps. […] Results were expressed in absolute amount in pg/ml.
(§4) SM17, three different SM17-anti-IL33 bsBps and three different SM17-anti-TSLP bsBps (all at 5 μg/ml) were added to human PBMC cultures under conditions that shall induce the release of IFNγ, CCL8, CCL17 and IL-5 as described in Example 11 above. The levels of different cytokines and chemotactic factors in supernatant obtained in induced PBMC were evaluated using standard ELISA methods.

Human PBMCs [2] = experiment: CCL8 and IFNγ release from human PBMC incubated with IL-12 and IL-33; assay type: cell-based; parameters: key to Intensity of specific cytokine inhibition, IFNγ / Intensity of specific cytokine inhibition, CCL-8: −: no inhibition; +: weak; ++: moderate; +++: strong inhibition
Protocol: as §2, §3, §4

Human PBMCs [3] = experiment: CCL17 release from human PBMC incubated with TSLP; assay type: cell-based; parameters: key to Intensity of specific cytokine inhibition, CCL-17: −: no inhibition; +: weak; ++: moderate; +++: strong inhibition
Protocol: as §2, §3, §4

[4] = SM17 5 μg/ml, IL-12 and IL-33 10 ng/ml, 1 day, vs IgG4 isotype control

binding of SM17 to IL17RC (in words) (hIL17RC): No obvious bindings
Ka (Cyno-IL17RB): 32100 M⁻¹ s⁻¹ and 42100 M⁻¹ s⁻¹
Kdis (Cyno-IL17RB): 2.73e-05 s⁻¹ and 0.000215 s⁻¹
Ka (IL-17RB): 222000 M⁻¹ s⁻¹ and 183000 M⁻¹ s⁻¹
Substance: SM17: humanized anti-IL17RB monoclonal antibody, human IgG4 isotype; HC SEQ ID NO: 32, LC SEQ ID NO: 33
secretion of IL-5 (in words) (Human PBMCs [1]): effectively suppress
secretion of IL-13 (in words) (Human PBMCs [1]): effectively suppress
Intensity of specific cytokine inhibition, CCL-8 (Human PBMCs [2]; 5 μg/ml, human PBMC): −
Intensity of specific cytokine inhibition, IFNγ (Human PBMCs [2]; 5 μg/ml, human PBMC): −
CCL8 release (in words) (Human PBMCs [2]; [4]): no inhibitory effects
IFNγ release (in words) (Human PBMCs [2]; [4]): no inhibitory effects
Intensity of specific cytokine inhibition, CCL-17 (Human PBMCs [3]; 5 μg/ml, human PBMC): −
CCL17 release (in words) (Human PBMCs [3]; SM17 5 μg/ml, TSLP 10 ng/ml, 1 day, vs IgG4 isotype control): no inhibitory effects
